Our source for the IC50 values is US20210198277A1, “AMINE-SUBSTITUTED ARYL OR HETEROARYL COMPOUNDS” (Epizyme, Inc., priority 2016, published 2021).

Where a name gives a salt, the structure may show the parent alone. Some results are limits rather than exact numbers.

This assay has as its target T1, EHMT2 (Homo sapiens, UniProt Q96KQ7).
T1 construct: host or cells: MDA-MB-231
T1 sequence (Q96KQ7 1-1210): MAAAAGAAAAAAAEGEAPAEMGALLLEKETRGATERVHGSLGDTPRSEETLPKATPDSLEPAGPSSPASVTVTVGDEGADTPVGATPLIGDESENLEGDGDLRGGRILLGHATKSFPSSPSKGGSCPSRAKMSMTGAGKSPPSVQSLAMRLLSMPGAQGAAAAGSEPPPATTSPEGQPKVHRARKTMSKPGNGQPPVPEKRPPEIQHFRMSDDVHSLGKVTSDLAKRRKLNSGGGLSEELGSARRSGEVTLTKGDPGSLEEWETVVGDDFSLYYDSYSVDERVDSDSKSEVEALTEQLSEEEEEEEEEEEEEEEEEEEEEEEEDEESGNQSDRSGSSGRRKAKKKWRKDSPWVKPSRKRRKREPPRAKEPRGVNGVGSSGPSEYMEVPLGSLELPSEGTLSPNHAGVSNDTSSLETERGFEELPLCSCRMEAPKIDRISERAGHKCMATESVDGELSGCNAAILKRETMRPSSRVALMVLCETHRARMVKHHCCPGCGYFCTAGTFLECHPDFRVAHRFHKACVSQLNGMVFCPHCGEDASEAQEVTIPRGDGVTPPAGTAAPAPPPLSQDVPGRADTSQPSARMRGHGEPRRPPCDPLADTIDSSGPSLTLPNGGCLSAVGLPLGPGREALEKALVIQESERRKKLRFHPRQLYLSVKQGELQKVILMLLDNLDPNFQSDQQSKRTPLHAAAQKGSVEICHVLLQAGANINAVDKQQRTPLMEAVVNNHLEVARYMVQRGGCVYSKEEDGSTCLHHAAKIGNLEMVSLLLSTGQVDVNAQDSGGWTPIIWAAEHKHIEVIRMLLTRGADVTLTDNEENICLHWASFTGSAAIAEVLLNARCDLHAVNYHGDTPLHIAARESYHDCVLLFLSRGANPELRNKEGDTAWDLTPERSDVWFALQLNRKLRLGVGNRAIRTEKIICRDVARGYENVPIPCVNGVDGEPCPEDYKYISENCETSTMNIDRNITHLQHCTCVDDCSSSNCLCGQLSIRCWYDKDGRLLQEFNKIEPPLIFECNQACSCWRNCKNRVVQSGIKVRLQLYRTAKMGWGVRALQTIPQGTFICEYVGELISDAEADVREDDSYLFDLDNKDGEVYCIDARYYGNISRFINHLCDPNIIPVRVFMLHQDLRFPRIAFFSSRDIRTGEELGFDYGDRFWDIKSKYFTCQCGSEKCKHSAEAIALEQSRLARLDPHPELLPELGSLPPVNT
The assay can be described thus: MDA-MB-231 H3K9me2 in-cell Western assay (EHMT2 ICW). The class given is cell-based. The conditions noted are these: Table II; MDA-MB-231 H3K9me2 in-cell Western; read-out: EHMT2 ICW (IC50 μM). The text has this:
RPMI/Glutamax medium, Penicillin-Streptomycin, Heat Inactivated Fetal Bovine Serum, and D-PBS were purchased from Life Technologies (Grand Island, N.Y., USA). Odyssey blocking buffer, 800CW goat anti-mouse IgG (H+L) antibody, and Licor Odyssey Infrared Scanner were purchased from Licor Biosciences, Lincoln, Nebr., USA. […] 16% Paraformaldehyde was purchased from Electron Microscopy Sciences, Hatfield, Pa., USA).MDA-MB-231 cells were maintained in complete growth medium (RPMI supplemented with 10% v/v heat inactivated fetal bovine serum) and cultured at 37° C. under 5% CO2. UNC0638 was purchased from Sigma-Aldrich (St. Louis, Mo., USA).
Compound (100 nL) was added directly to 384-well cell plate. MDA-MB-231 cells (ATCC) were seeded in assay medium (RPMI/Glutamax supplemented with 10% v/v heat inactivated fetal bovine serum and 1% Penicillin/Streptomycin, Life Technologies) at a concentration of 3,000 cells per well to a Poly-D-Lysine coated 384-well cell culture plate with 50 μL per well. […] Plates were incubated at room temperature for 30 minutes and then incubated at 37° C., 5% CO2 for additional 48 hours. After the incubation, 50 μL per well of 8% paraformaldehyde (Electron Microscopy Sciences) in PBS was added to the plates and incubated at room temperature for 20 minutes. […] Next, 60 μL per well of Odyssey blocking buffer (Licor Biosciences) was added to each plate and incubated for 1 hour at room temperature. Blocking buffer was removed and 20 μL of monoclonal primary antibody α-H3K9me2 (Abcam) diluted 1:800 in Odyssey buffer with 0.1% Tween 20 (v/v) were added and plates were incubated overnight (16 hours) at 4° C. Plates were washed 5 times with 100 μL per well of wash buffer. Next 20 μL per well of secondary antibody was added (1:500 800CW donkey anti-mouse IgG (H+L) antibody (Licor Biosciences), 1:1000 DRAQ5 (Cell Signaling Technology) in Odyssey buffer with 0.1% Tween 20 (v/v)) and incubated for 1 hour at room temperature. The plates were washed 5 times with 100 μL per well wash buffer then 2 times with 100 μL per well of water. Plates were allowed to dry at room temperature then imaged on a Licor Odyssey Infrared Scanner (Licor Biosciences) which measured integrated intensity at 700 nm and 800 nm wavelengths. Both 700 and 800 channels were scanned.
First, the ratio for each well was determined by:
The average of the ratio values for each well was calculated and used to determine the percent inhibition for each test well in the plate. Control compound was serially diluted three-fold in DMSO for a total of 10 test concentrations beginning at 1 μM. Percent inhibition was calculated as: […]
IC50 curves were generated using triplicate wells per concentration of compound. […] IC50 values were calculated using a non-linear regression (variable slope-four parameter fit model) with by the following formula: […]
In the case of `COc1ccc(Nc2nccc(NCC3CCN(C(C)=O)CC3)n2)cc1OCCC(=O)N1CCCC1` [Compound 166], the half-inhibitory concentration (IC50) was > 10 µM. As to `COc1ccc(Nc2nccc(N(C)CC3CCN(C(C)=O)CC3)n2)cc1OCCCN1CCCC1` [Compound 172], the IC50 was > 10 µM. In the case of `COc1ccc(Nc2nccc(N3CCCN(C(C)=O)CC3)n2)cc1OCCCN1CCCC1` [Compound 138], the IC50 was > 10 µM. With `COc1cnc(Nc2ccnc(CNC3CCOCC3)c2)cc1OCCCN1CCCC1` [Compound 12, 5-methoxy-4-(3-(pyrrolidin-1-yl)propoxy)-N-(2-(((tetrahydro-2H-pyran-4-yl)amino)methyl)pyridin-4-yl)pyridin-2-amine] the figure was > 10 µM; with `COc1ccc(Nc2nccc(NCC3CCOCC3)n2)cc1OCCN1CCOCC1` [Compound 204], > 10 µM. With `COc1ccc(Nc2nccc(-c3c(C)n[nH]c3C)n2)cc1OCCCN1CCCC1` [Compound 129] the figure was > 10 µM. With `COc1ccc(Nc2nccc(N3CCCNC(=O)C3)n2)cc1OCCCN1CCCC1` [Compound 133] the figure was > 10 µM.

For `COc1ccc(Nc2nccc(N(C)C)n2)cc1OCCCN1CCCC1` [Compound 171], the IC50 was 1 to 10 µM.

Turning to `COCCN(C)c1ccnc(Nc2ccc(OC)c(OCCCN3CCCC3)c2)n1` [Compound 177], the concentration for half-maximal inhibition (IC50) is > 10 µM. With `COc1ccc(Nc2nccc(N3CCC(OC)CC3)n2)cc1OCCCN1CCCC1` [Compound 149], the half-inhibitory concentration (IC50) is > 10 µM. The value for `COc1ccc(Nc2nccc(N3CCC(O)CC3)n2)cc1OCCCN1CCCC1` [Compound 148] was > 10 µM; that for `COc1ccc(Nc2nccc(N3CCc4[nH]ncc4C3)n2)cc1OCCCN1CCCC1` [Compound 128] was > 10 µM; that for `COc1ccc(Nc2nccc(N3CCC(C)(O)CC3)n2)cc1OCCCN1CCCC1` [Compound 141] was > 10 µM. The value for `COc1ccc(Nc2nccc(NCCc3ccccn3)n2)cc1OCCCN1CCCC1` [Compound 167] was 0.1 to 1 µM; that for `COc1ccc(Nc2ccnc(NCC3CCNCC3)n2)cc1OCCCN1CCCC1` [Compound 7, 4-N-[4-methoxy-3-[3-(pyrrolidin-1-yl)propoxy]phenyl]-2-N-(piperidin-4-ylmethyl)pyrimidine-2,4-diamine hydrochloride] was 1 to 10 µM; that for `COc1ccc(Nc2nccc(N3CC(C(N)=O)C3)n2)cc1OCCCN1CCCC1` [Compound 179] was > 10 µM. The value for `COc1ccc(Nc2nccc(N3CCc4nc[nH]c(=O)c4C3)n2)cc1OCCCN1CCCC1` [Compound 134] was > 10 µM; that for `COc1ccc(Nc2nccc(NCc3ccc(=O)[nH]c3)n2)cc1OCCCN1CCCC1` [Compound 165] was > 10 µM. In the case of `COCCCN(C)c1ccnc(Nc2ccc(OC)c(OCCCN3CCCC3)c2)n1` [Compound 143], the half-inhibitory concentration (IC50) is > 10 µM.

Take `COc1ccc(Nc2nccc(NCc3ccc4nccn4c3)n2)cc1OCCCN1CCCC1` [Compound 191]: the half-inhibitory concentration (IC50) is 0.1 to 1 µM. The value for `COc1ccc(Nc2nccc(NCC3CCN(C(C)=O)CC3)n2)cc1OCC(C)CN1CCCC1` (centres unmarked) [Compound 183] was 1 to 10 µM; that for `CC(=O)N1CCC(CNc2ccnc(Nc3ccc(Cl)c(OCCCN4CCCC4)c3)n2)CC1` [Compound 8, 1-(4-(((2-((4-chloro-3-(3-(pyrrolidin-1-yl)propoxy)phenyl)amino)pyrimidin-4-yl)amino)methyl)piperidin-1-yl)ethan-1-one] was 1 to 10 µM; that for `COc1cnc(Nc2cc(NCC3CCN(C(C)=O)CC3)ccn2)cc1OCCCN1CCCC1` [Compound 182] was > 10 µM.

As to `COc1ccc(Nc2cc(NCC3CCN(C(C)=O)CC3)cnn2)cc1OCCCN1CCCC1` [Compound 185], the IC50 is > 10 µM.

As to `COc1ccc(Nc2cc(CNC3CCNCC3)n(C)n2)cc1OCCCN1CCCC1` [Compound 126], the half-inhibitory concentration (IC50) is > 10 µM. With `COc1ccc(Nc2nccc(N3CCC(C(C)(C)O)CC3)n2)cc1OCCCN1CCCC1` [Compound 147] the figure was > 10 µM; with `CCOC(=O)N1CCC(CNc2ccnc(Nc3ccc(OC)c(OCCCN4CCCC4)c3)n2)CC1` [Compound 203], 0.1 to 1 µM; with `COc1ccc(Nc2nccc(N3CCc4cn[nH]c4C3)n2)cc1OCCCN1CCCC1` [Compound 155], > 10 µM. The value for `COc1ccc(Nc2cc(N(C)CC3CCN(C(C)=O)CC3)ccn2)cc1OCCCN1CCCC1` [Compound 163] was > 10 µM; that for `COc1ccc(Nc2nccc(-c3c[nH]nc3C)n2)cc1OCCCN1CCCC1` [Compound 131] was > 10 µM; that for `COc1ccc(Nc2nccc(N3CCc4ncncc4C3)n2)cc1OCCCN1CCCC1` [Compound 156] was > 10 µM.

On to `CNc1cc(C)nc(Nc2ccc(OC)c(OCCCN3CC[C@@H](F)C3)c2)n1` [Compound 186], for which the IC50 is 0.1 to 1 µM. Regarding `COc1ccc(Nc2nccc(OCC3CCN(C(C)=O)CC3)n2)cc1OCCCN1CCCC1` [Compound 14, 1-(4-(((2-((4-methoxy-3-(3-(pyrrolidin-1-yl)propoxy)phenyl)amino)pyrimidin-4-yl)oxy)methyl)piperidin-1-yl)ethan-1-one], the IC50 was > 10 µM.

With `COc1ccc(Nc2nccc(N3CCN(C(C)=O)CC3)n2)cc1OCCCN1CCCC1` [Compound 139], the IC50 is > 10 µM. As for `COc1ccc(Nc2nccc(NCC3CCNCC3)n2)cc1OCC(O)CN1CCCC1` (centres unmarked) [Compound 15, 1-(2-methoxy-5-((4-((piperidin-4-ylmethyl)amino)pyrimidin-2-yl)amino)phenoxy)-3-(pyrrolidin-1-yl)propan-2-ol], the concentration for half-maximal inhibition (IC50) is > 10 µM.

One may read the IC50 as the concentration needed to halve the response being measured.
